Tests used:
[1] = system: experimentally produced endometriosis (cystic endometriosis foci); assay: Experimentally produced endometriosis in the rat (transplanted endometrium fragments)
Experimental: Fragments of endometrium were transplanted into different regions of the abdominal cavity of 60 animals.
Four weeks later the development of the endometriosis (cystic endometriosis foci) was examined.
The animals were then treated for 4 weeks with the LHRH antagonists Antide (0.5 mg/animal every 3 days s.c.) and Raloxifen (3 mg/animal per day p.o.) in each case alone, or in a combination of the two compounds. At the end the size of the endometriosis foci before the beginning of the treatment was compared with the values after 4 weeks' treatment.
60 animals received the LHRH antagonist Antide and Raloxifen in parallel for the first 2 weeks and Raloxifen alone for the following 2 weeks. The doses were selected as in 1.1.
60 animals received the LHRH antagonist Antide for 2 weeks. On completion of the LHRH administration Raloxifen was then administered for 2 weeks.
Analogously to Example 1, treatment with LHRH antagonists Ac-D-Nal-D-Cpa-D-Pal-Ser-Tyr-D-Cit-Leu-Lys(Mor)-D-Ala-NH2 and Droloxifen was carried out on 40 animals.

[2] = women; literature; cited from earlier work

Molecule: Antide
- endogenous oestrogen levels ([1]; 1.1: 4 weeks' treatment, alone): reduction in endogenous oestrogen levels corresponding to an ovariectomy
- regression of the endometriosis foci (size before vs after treatment) ([1]; 1.1: 4 weeks' treatment, Antide 0.5 mg/animal every 3 days s.c., Raloxifen 3 mg/animal per day p.o., each alone or simultaneous combination): complete regression
- osteoclast activity ([1]; rat, in vivo): increase

Molecule: C#C[C@]1(O)CC[C@H]2[C@@H]3CCC4=Cc5oncc5C[C@]4(C)[C@H]3CC[C@@]21C [danazol]
- side effects of treatment [2]: androgenisation phenomena
